Source: patent publication US10792289B2 (Horizon Orphan LLC, priority 2009, dated 2020)

Test system: P. aeruginosa
Experiment: Phase 2 study: P. aeruginosa density in sputum
Type: in vivo, Pseudomonas aeruginosa
Details: for Reduction in P. aeruginosa density in sputum: median Day 1 to Day 28
Procedure: The following dosage regimens (as nebulizer loaded doses) were evaluated: 120 mg QD (daily); 240 mg QD (daily); and 240 mg BID (twice daily).
Patients were assessed on Day 1, 7, 14, and 28, and then up to 28 days after completion of study drug, namely, Days 42 and 56. The end of the study was defined as the last visit of the last patient.
Efficacy was evaluated by microbiologic assessment of sputum samples, time to need for anti-pseudomonal antimicrobials, the Cystic Fibrosis Questionaire-Revised (CFQ-R), and pulmonary function tests. […] Pair-wise comparisons between all the treatment arms were conducted as secondary analyses.

[1] = EE, 120 mg QD, Baseline to Day 7
[2] = EE, 120 mg QD, Baseline to Day 14
[3] = EE, 120 mg QD, Baseline to Day 28
[4] = EE, 240 mg BID, Baseline to Day 7
[5] = EE, 240 mg BID, Baseline to Day 14
[6] = EE, 240 mg BID, Baseline to Day 28
[7] = EE, 240 mg QD, Baseline to Day 7
[8] = EE, 240 mg QD, Baseline to Day 14
[9] = EE, 240 mg QD, Baseline to Day 28
[10] = EE, combined 240 mg QD and BID, Baseline to Day 7
[11] = EE, combined 240 mg QD and BID, Baseline to Day 14
[12] = EE, combined 240 mg QD and BID, Baseline to Day 28
[13] = EE, combined 240 mg QD and BID, Day 1
[14] = EE, combined 240 mg QD and BID, Day 7
[15] = EE, combined 240 mg QD and BID, Day 14
[16] = EE, combined 240 mg QD and BID, Day 28
[17] = MITT, 120 mg QD, Baseline to Day 7
[18] = MITT, 120 mg QD, Baseline to Day 14
[19] = MITT, 120 mg QD, Baseline to Day 28
[20] = MITT, 240 mg BID, Baseline to Day 7
[21] = MITT, 240 mg BID, Baseline to Day 14
[22] = MITT, 240 mg BID, Baseline to Day 28
[23] = MITT, 240 mg QD, Baseline to Day 7
[24] = MITT, 240 mg QD, Baseline to Day 14
[25] = MITT, 240 mg QD, Baseline to Day 28
[26] = MITT, combined 240 mg QD and BID, Baseline to Day 7
[27] = MITT, combined 240 mg QD and BID, Baseline to Day 14
[28] = MITT, combined 240 mg QD and BID, Baseline to Day 28
[29] = MITT, combined 240 mg QD and BID, Day 1
[30] = MITT, combined 240 mg QD and BID, Day 7
[31] = MITT, combined 240 mg QD and BID, Day 14
[32] = MITT, combined 240 mg QD and BID, Day 28

## C[C@H]1COc2c(N3CCN(C)CC3)c(F)cc3c(=O)c(C(=O)O)cn1c23 [Levofloxacin, levofloxacin]
[1]
  Change in P. aeruginosa density, mean (SD): −0.76 (1.263) log10 CFU sputum
  Change in P. aeruginosa density, median: −0.58 log10 CFU sputum
[2]
  Change in P. aeruginosa density, mean (SD): −0.10 (1.240) log10 CFU sputum
  Change in P. aeruginosa density, median: 0.00 log10 CFU sputum
[3]
  Change in P. aeruginosa density, mean (SD): −0.31 (1.050) log10 CFU sputum
  Change in P. aeruginosa density, median: −0.20 log10 CFU sputum
EE, 120 mg QD, Day 1
  P. aeruginosa density, median: 8.17 log10 CFU sputum
EE, 120 mg QD, Day 7
  P. aeruginosa density, mean (SD): 6.64 (1.818) log10 CFU sputum
  P. aeruginosa density, median: 6.86 log10 CFU sputum
EE, 120 mg QD, Day 14
  P. aeruginosa density, mean (SD): 7.32 (1.643) log10 CFU sputum
  P. aeruginosa density, median: 8.00 log10 CFU sputum
EE, 120 mg QD, Day 28
  P. aeruginosa density, mean (SD): 7.25 (1.431) log10 CFU sputum
  P. aeruginosa density, median: 7.78 log10 CFU sputum
EE, 120 mg QD
  Reduction in P. aeruginosa density in sputum: approximately 59%
[4]
  Change in P. aeruginosa density, mean (SD): −1.03 (1.921) log10 CFU sputum
  Change in P. aeruginosa density, median: −0.88 log10 CFU sputum
[5]
  Change in P. aeruginosa density, mean (SD): −0.83 (1.901) log10 CFU sputum
  Change in P. aeruginosa density, median: −0.91 log10 CFU sputum
[6]
  Change in P. aeruginosa density, mean (SD): −0.74 (1.488) log10 CFU sputum
  Change in P. aeruginosa density, median: −0.68 log10 CFU sputum
EE, 240 mg BID, Day 1
  P. aeruginosa density, mean (SD): 7.26 (1.433) log10 CFU sputum
  P. aeruginosa density, median: 7.84 log10 CFU sputum
EE, 240 mg BID, Day 7
  P. aeruginosa density, mean (SD): 6.23 (1.850) log10 CFU sputum
  P. aeruginosa density, median: 6.52 log10 CFU sputum
EE, 240 mg BID, Day 14
  P. aeruginosa density, mean (SD): 6.43 (1.725) log10 CFU sputum
  P. aeruginosa density, median: 6.81 log10 CFU sputum
EE, 240 mg BID, Day 28
  P. aeruginosa density, mean (SD): 6.65 (1.440) log10 CFU sputum
  P. aeruginosa density, median: 6.40 log10 CFU sputum
EE, 240 mg BID
  Reduction in P. aeruginosa density in sputum: approximately 96%
[7]
  Change in P. aeruginosa density, mean (SD): −0.25 (1.789) log10 CFU sputum
  Change in P. aeruginosa density, median: −0.18 log10 CFU sputum
[8]
  Change in P. aeruginosa density, mean (SD): −0.47 (1.905) log10 CFU sputum
  Change in P. aeruginosa density, median: −0.11 log10 CFU sputum
[9]
  Change in P. aeruginosa density, mean (SD): −0.38 (1.780) log10 CFU sputum
  Change in P. aeruginosa density, median: −0.52 log10 CFU sputum
EE, 240 mg QD, Day 1
  P. aeruginosa density, mean (SD): 7.16 (1.597) log10 CFU sputum
  P. aeruginosa density, median: 7.97 log10 CFU sputum
EE, 240 mg QD, Day 7
  P. aeruginosa density, mean (SD): 6.94 (1.783) log10 CFU sputum
  P. aeruginosa density, median: 7.15 log10 CFU sputum
EE, 240 mg QD, Day 14
  P. aeruginosa density, mean (SD): 6.69 (1.628) log10 CFU sputum
  P. aeruginosa density, median: 6.46 log10 CFU sputum
EE, 240 mg QD, Day 28
  P. aeruginosa density, mean (SD): 6.78 (1.896) log10 CFU sputum
  P. aeruginosa density, median: 7.38 log10 CFU sputum
EE, 240 mg QD
  Reduction in P. aeruginosa density in sputum: approximately 74%
EE, Day 7
  Largest difference in P. aeruginosa density, placebo vs levofloxacin: 1.62 log10 CFU/g sputum
EE, Day 14
  Largest difference in P. aeruginosa density, placebo vs levofloxacin: 1.39 log10 CFU/g sputum
EE, Day 28
  Largest difference in P. aeruginosa density, placebo vs levofloxacin: 1.88 log10 CFU/g sputum
[10]
  Change in P. aeruginosa density, mean (SD): −0.64 (1.833) log10 CFU sputum
  Change in P. aeruginosa density, median: −0.37 log10 CFU sputum
[11]
  Change in P. aeruginosa density, mean (SD): −0.65 (1.898) log10 CFU sputum
  Change in P. aeruginosa density, median: −0.46 log10 CFU sputum
[12]
  Change in P. aeruginosa density, mean (SD): −0.55 (1.645) log10 CFU sputum
  Change in P. aeruginosa density, median: −0.58 log10 CFU sputum
[13]
  P. aeruginosa density, mean (SD): 7.21 (1.508) log10 CFU sputum
  P. aeruginosa density, median: 7.90 log10 CFU sputum
[14]
  P. aeruginosa density, mean (SD): 6.59 (1.838) log10 CFU sputum
  P. aeruginosa density, median: 6.77 log10 CFU sputum
[15]
  P. aeruginosa density, mean (SD): 6.56 (1.669) log10 CFU sputum
  P. aeruginosa density, median: 6.78 log10 CFU sputum
[16]
  P. aeruginosa density, mean (SD): 6.72 (1.683) log10 CFU sputum
  P. aeruginosa density, median: 6.90 log10 CFU sputum
[17]
  Change in P. aeruginosa density, mean: −0.70 log10 CTU/g sputum
  Change in P. aeruginosa density, median: −0.53 log10 CTU/g sputum
[18]
  Change in P. aeruginosa density, mean: −0.07 log10 CTU/g sputum
  Change in P. aeruginosa density, median: 0.00 log10 CTU/g sputum
[19]
  Change in P. aeruginosa density, mean: −0.27 log10 CTU/g sputum
  Change in P. aeruginosa density, median: −0.20 log10 CTU/g sputum
MITT, 120 mg QD, Day 1
  P. aeruginosa density, mean: 7.43 log10 CTU/g sputum
  P. aeruginosa density, median: 8.16 log10 CTU/g sputum
MITT, 120 mg QD, Day 7
  P. aeruginosa density, mean: 6.68 log10 CTU/g sputum
  P. aeruginosa density, median: 6.98 log10 CTU/g sputum
MITT, 120 mg QD, Day 14
  P. aeruginosa density, mean: 7.33 log10 CTU/g sputum
  P. aeruginosa density, median: 8.00 log10 CTU/g sputum
MITT, 120 mg QD, Day 28
  P. aeruginosa density, mean: 7.26 log10 CTU/g sputum
  P. aeruginosa density, median: 7.78 log10 CTU/g sputum
MITT, 120 mg QD
  Reduction in P. aeruginosa density in sputum: approximately 58%
[20]
  Change in P. aeruginosa density, mean: −0.97 log10 CTU/g sputum
  Change in P. aeruginosa density, median: −0.76 log10 CTU/g sputum
[21]
  Change in P. aeruginosa density, mean: −0.81 log10 CTU/g sputum
  Change in P. aeruginosa density, median: −0.79 log10 CTU/g sputum
[22]
  Change in P. aeruginosa density, mean: −0.66 log10 CTU/g sputum
  Change in P. aeruginosa density, median: −0.56 log10 CTU/g sputum
MITT, 240 mg BID, Day 1
  P. aeruginosa density, mean: 7.17 log10 CTU/g sputum
  P. aeruginosa density, median: 7.90 log10 CTU/g sputum
MITT, 240 mg BID, Day 7
  P. aeruginosa density, mean: 6.16 log10 CTU/g sputum
  P. aeruginosa density, median: 6.53 log10 CTU/g sputum
MITT, 240 mg BID, Day 14
  P. aeruginosa density, mean: 6.32 log10 CTU/g sputum
  P. aeruginosa density, median: 6.70 log10 CTU/g sputum
MITT, 240 mg BID, Day 28
  P. aeruginosa density, mean: 6.58 log10 CTU/g sputum
  P. aeruginosa density, median: 6.48 log10 CTU/g sputum
MITT, 240 mg BID
  Reduction in P. aeruginosa density in sputum: approximately 96%
[23]
  Change in P. aeruginosa density, mean: −0.31 log10 CTU/g sputum
  Change in P. aeruginosa density, median: −0.18 log10 CTU/g sputum
[24]
  Change in P. aeruginosa density, mean: −0.44 log10 CTU/g sputum
  Change in P. aeruginosa density, median: −0.10 log10 CTU/g sputum
[25]
  Change in P. aeruginosa density, mean: −0.25 log10 CTU/g sputum
  Change in P. aeruginosa density, median: −0.39 log10 CTU/g sputum
MITT, 240 mg QD, Day 1
  P. aeruginosa density, mean: 7.08 log10 CTU/g sputum
  P. aeruginosa density, median: 7.97 log10 CTU/g sputum
MITT, 240 mg QD, Day 7
  P. aeruginosa density, mean: 6.79 log10 CTU/g sputum
  P. aeruginosa density, median: 6.95 log10 CTU/g sputum
MITT, 240 mg QD, Day 14
  P. aeruginosa density, mean: 6.63 log10 CTU/g sputum
  P. aeruginosa density, median: 6.46 log10 CTU/g sputum
MITT, 240 mg QD, Day 28
  P. aeruginosa density, mean: 6.82 log10 CTU/g sputum
  P. aeruginosa density, median: 7.38 log10 CTU/g sputum
MITT, 240 mg QD
  Reduction in P. aeruginosa density in sputum: approximately 74%
MITT, Day 7
  Largest difference in P. aeruginosa density, placebo vs levofloxacin: 1.44 log10 CFU/g sputum
MITT, Day 14
  Largest difference in P. aeruginosa density, placebo vs levofloxacin: 1.39 log10 CFU/g sputum
MITT, Day 28
  Largest difference in P. aeruginosa density, placebo vs levofloxacin: 1.78 log10 CFU/g sputum
[26]
  Change in P. aeruginosa density, mean: −0.65 log10 CTU/g sputum
  Change in P. aeruginosa density, median: −0.35 log10 CTU/g sputum
[27]
  Change in P. aeruginosa density, mean: −0.63 log10 CTU/g sputum
  Change in P. aeruginosa density, median: −0.40 log10 CTU/g sputum
[28]
  Change in P. aeruginosa density, mean: −0.46 log10 CTU/g sputum
  Change in P. aeruginosa density, median: −0.5 log10 CTU/g sputum
[29]
  P. aeruginosa density, mean: 7.12 log10 CTU/g sputum
  P. aeruginosa density, median: 7.91 log10 CTU/g sputum
[30]
  P. aeruginosa density, mean: 6.47 log10 CTU/g sputum
  P. aeruginosa density, median: 6.69 log10 CTU/g sputum
[31]
  P. aeruginosa density, mean: 6.48 log10 CTU/g sputum
  P. aeruginosa density, median: 6.61 log10 CTU/g sputum
[32]
  P. aeruginosa density, mean: 6.70 log10 CTU/g sputum
  P. aeruginosa density, median: 6.90 log10 CTU/g sputum
